Laboratory results taken from PubChem BioAssay AID624323 (Sanford-Burnham Center for Chemical Genomics, 2012).
Values after ≈ are worked out from the molar mass of the structure shown. Active and inactive are the calls of the source. The rule behind the calls is not given here.

System: aqueous buffer solubility, pH 5.0/6.2/7.4
Assay: compound solubility, pH 5.0, 6.2, 7.4 – biophysical, set 2, ADME assay (AID 624323)
Details: at 100 µM, stronger effect = higher value
[1] = measured here: solubility at pH 5.0
[2] = measured here: solubility at pH 6.2

Row | solubility | solubility [1] [µg/mL] | solubility [2] [µg/mL] | SMILES
1 | 1.3 µg/mL (inactive) (≈ 4.08 µM) | 2.1 (≈ 6.59 µM) | 2 (≈ 6.28 µM) | CCCc1cc(C(=O)N(C2CCCCC2)C2CCCCC2)no1
2 | 3.5 µg/mL (inactive) (≈ 8.76 µM) | 3.2 (≈ 8.01 µM) | 3.7 (≈ 9.26 µM) | CC(=O)c1ccc(N2CCN(S(=O)(=O)c3ccc4c(c3)CC(=O)N4)CC2)cc1
3 | > 25 µg/mL | > 25 | > 25 | Brc1ccc2c(c1)CN1CCCC1=N2
4 | 1.7 µg/mL (inactive) (≈ 4.64 µM) | > 36 | > 36 | CC1CCCN(C(C(=O)Nc2ccc3c(c2)OCCO3)c2ccccc2)C1 (stereo not given)
5 | 0.54 µg/mL (inactive) (≈ 1.56 µM) | 0.42 (≈ 1.22 µM) | 0.52 (≈ 1.51 µM) | N#Cc1ccccc1CSc1nc2ncc(Br)cc2[nH]1
6 | 26.2 µg/mL (≈ 73 µM) | > 36 | > 36 | O=S(=O)(NC1CCCCC1N1CCOCC1)c1ccc(Cl)cc1 (stereo not given)
7 | 0.37 µg/mL (inactive) (≈ 0.828 µM) | 1.1 (≈ 2.46 µM) | 0.8 (≈ 1.79 µM) | CCOc1ccc(NC(=S)N2CCC(C(O)(c3ccccc3)c3ccccc3)CC2)cc1
8 | 41.5 µg/mL (≈ 83.2 µM) | > 49 | 41.2 (≈ 82.6 µM) | COc1ccc(C2c3c(ncn(CCN4CCOCC4)c3=N)Oc3ccc4ccccc4c32)cc1OC (stereo not given)
9 | 9.1 µg/mL (inactive) (≈ 25.9 µM) | 19 (≈ 54.1 µM) | 9.3 (≈ 26.5 µM) | Cc1ccnc(NC(=O)CCCOc2cc(=O)n(C)c3ccccc23)c1
10 | > 37 µg/mL | > 37 | > 37 | O=C(COc1ccccc1Br)NCCc1nc2ccccc2[nH]1
11 | 3 µg/mL (inactive) (≈ 6.87 µM) | 1.8 (≈ 4.12 µM) | 2.5 (≈ 5.73 µM) | CS(=O)(=O)c1ccc(C(=O)OCC(=O)NC23CC4CC(CC(C4)C2)C3)cc1[N+](=O)[O-]
12 | < 0.1 µg/mL (inactive) | 0.13 (≈ 0.286 µM) | < 0.1 | COc1ccc(S(=O)(=O)N2CCN(S(=O)(=O)c3ccc4c(c3)OCCO4)CC2)cc1
13 | 0.39 µg/mL (inactive) (≈ 1.05 µM) | 0.24 (≈ 0.648 µM) | 0.31 (≈ 0.837 µM) | C/C=C/Cn1c(SCCCc2ccccc2)nc2c1c(=O)[nH]c(=O)n2C
14 | 16.5 µg/mL (≈ 48.3 µM) | 15.5 (≈ 45.4 µM) | 16.9 (≈ 49.5 µM) | Cc1ccc(S(=O)(=O)C(c2ccccc2)c2c(C)noc2C)cc1 (stereo not given)
15 | > 26 µg/mL | > 26 | > 26 | COc1ccc(CSc2nc(C)cc(=O)[nH]2)cc1
16 | > 27 µg/mL | > 27 | > 27 | Cn1cnc([N+](=O)[O-])c1Sc1ncnc2nc[nH]c12
17 | 0.36 µg/mL (inactive) (≈ 0.796 µM) | 0.27 (≈ 0.597 µM) | 0.31 (≈ 0.685 µM) | CCOC(=O)C(C)Oc1cccc2c(=O)n(CC(=O)Nc3ccc4c(c3)OCCO4)ccc12 (stereo not given)
18 | 0.14 µg/mL (inactive) (≈ 0.5 µM) | 0.08 (≈ 0.285 µM) | 0.12 (≈ 0.428 µM) | N#C/C(=C\c1ccc([N+](=O)[O-])o1)c1nc2ccccc2[nH]1
19 | > 26 µg/mL | > 26 | > 26 | O=C(O)c1cccnc1SCCc1ccccc1
20 | 3.5 µg/mL (inactive) (≈ 11.5 µM) | 3.3 (≈ 10.8 µM) | 3.5 (≈ 11.5 µM) | c1ccc2c(Nc3nnc(-c4ccncc4)s3)cccc2c1
21 | 0.78 µg/mL (inactive) (≈ 2.01 µM) | 0.09 (≈ 0.232 µM) | 0.16 (≈ 0.412 µM) | CCc1nnc(NC(=O)c2ccc(NS(=O)(=O)c3ccccc3)cc2)s1
22 | 25.8 µg/mL (≈ 74.9 µM) | 20.8 (≈ 60.4 µM) | 25.7 (≈ 74.6 µM) | COc1ccc(OC)c(S(=O)(=O)Nc2cnc3ccccc3c2)c1
23 | 0.01 µg/mL (inactive) (≈ 0.0333 µM) | 0.02 (≈ 0.0666 µM) | 0.01 (≈ 0.0333 µM) | CSc1nc(-c2ccc(C)cc2)nc(C(Cl)Cl)n1
24 | > 32 µg/mL | > 32 | > 32 | Cc1cccc(-n2cnc3cc(C(=O)N4CCCCC4)ccc32)c1
25 | > 36 µg/mL | > 36 | > 36 | O=C(O)CCC(NS(=O)(=O)c1ccc(-c2ccccc2)cc1)C(=O)O (stereo not given)
